Molecular target: T1, S-SMase (Mus musculus, UniProt Q04519)
T1 construct: endogenous in cells; host or cells: J774.A1 macrophages, serum-free conditioned medium
T1 sequence (Q04519 45-627): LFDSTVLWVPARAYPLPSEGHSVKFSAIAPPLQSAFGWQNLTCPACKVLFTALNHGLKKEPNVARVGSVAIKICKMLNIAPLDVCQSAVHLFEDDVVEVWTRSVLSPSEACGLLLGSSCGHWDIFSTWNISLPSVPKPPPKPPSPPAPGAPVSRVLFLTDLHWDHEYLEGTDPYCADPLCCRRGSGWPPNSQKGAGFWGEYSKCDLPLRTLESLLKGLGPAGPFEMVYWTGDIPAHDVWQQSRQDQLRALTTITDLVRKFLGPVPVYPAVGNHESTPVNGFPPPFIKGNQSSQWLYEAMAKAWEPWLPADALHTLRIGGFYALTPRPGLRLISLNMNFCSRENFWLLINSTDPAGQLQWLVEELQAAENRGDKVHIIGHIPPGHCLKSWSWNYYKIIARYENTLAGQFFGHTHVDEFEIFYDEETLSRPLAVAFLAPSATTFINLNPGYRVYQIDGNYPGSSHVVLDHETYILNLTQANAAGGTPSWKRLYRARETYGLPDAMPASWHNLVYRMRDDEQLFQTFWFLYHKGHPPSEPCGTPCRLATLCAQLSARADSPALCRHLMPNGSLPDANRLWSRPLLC
Experiment: SMase assay of conditioned medium from J774 macrophages (SM micelles, pH 5.0)
Assay type: biochemical
Details: 0.1 mM ZnCl2 versus 5 mM EDTA
Method: FIGS. 14A-B. Sequential chelation and addition of Zn^2+ to secreted and intracellular SMase. Serum-free conditioned medium and a cell homogenate from J774 macrophages were prepared as described in “Experimental Procedures”. FIG. 14A, conditioned medium (CM) was assayed for SMase activity using 250 nM [^3H]sphingomyelin in Triton X-100 micelles in the presence of either 5 mM EDTA (first bar) or 0.1 mM ZnCl2 (second bar) for 1 h at 37° C. at pH 5.0. An aliquot of the Zn-activated conditioned medium was then incubated for 18 h in the presence of 10 mM EDTA, 10 mM 1,10-phenanthroline, and 0.6% Triton X-100 at 4° C. (EDTA PHNANTH) and then assayed for SMase activity (third bar). After chelation, a portion of this partially inactivated conditioned medium was then dialyzed against zinc-containing buffer C (150 mM NaCl, 10 mM Tris-HCl, 1 mM ZnCl2, 0.6% Triton X-100, pH 7.4) for 18 h and then assayed for SMase activity (fourth bar). FIG. 14B, an aliquot of cell homogenate (Cell Homgn) was assayed for SMase activity in the presence of assay buffer alone (first bar), 5 mM EDTA (second bar), or 0.1 mM ZnCl2 (third bar). Another aliquot of cell homogenate was incubated for 8 h in the presence of 10 mM EDTA, 10 mm 1,10-phenanthroline, and 0.6% Triton X-100 (EDTA PHNANTH) at 4° C. and then assayed for SMase activity (fourth bar). An aliquot of this chelator-treated cell homogenate was then dialyzed against zinc-containing buffer C for 18 h and then assayed for SMase activity (fifth bar).
SMase Assay—As previously described (Schissel et al., 1996), the standard 200-μl assay mixture consisted of up to 40 μl of sample (conditioned media or homogenized cells; see above) and a volume of assay buffer (0.1 M sodium acetate, pH 5.0) to bring the volume to 160 μl. […] The ceramide spots were scraped and directly counted to quantify [^3H]ceramide. Typically, the assay reactions contained approximately 20 μg of cellular homogenate protein and a volume of conditioned media derived from a quantity of cells equivalent to approximately 50 μg of cellular protein.

activation of S-SMase: markedly activated
Structure (SMILES): [Cl-].[Cl-].[Zn+2] [Zn^2+, ZnCl2]
